Laboratory results published in patent publication US20020002171A1, “Materials and methods for killing nematodes and nematode eggs” (priority 2000, published 2002).

Assays:
C. elegans = C. elegans nematode activity assay, 2-fold dilutions from 140 μM, visual evaluation at Day 4 (Example 3); type: in vivo, Caenorhabditis elegans
Method: The eggs were allowed to hatch, and the L1 larvae collected. See The Nematode Caenorhabditis elegans (1988) Cold Spring Harbor Laboratory Press. Using a Matrix Programmable Pipette, the L1s were distributed into 96-well tissue culture plates, 20 L1 in 50 μl NGM per well. Antibiotic/Antimyoticwas added to each well, and 1% by weight E. coli strain HB101. The subject anthelmintic compounds were stored at 5 mM in 100% DMSO. 0.7 μl of compounds 1-31 were added to the left-most column of wells to yield a final concentration of 70 μM in 1.4% DMSO, with 1.4% DMSO only as the control. The compounds were then subjected to 5 more 3-fold dilutions from left to right to yield 6 column concentrations of 70 μM, 23.3 μM, 7.8 μM, 2.6 μM, 0.9 μM, and 0.3 μM. Plates were stored in air-tight Rubbermaid plastic boxes at 20° C. The nematodes had cleared all control wells by day 4, and nematode viability was scored by visual examination under a 100× dissecting microsope on day 5. A visual viability scoring system was used as follows:
The C. elegans nematode activity assay for anthelmintic compounds 32-46 was similar to that described in Example 2 above, except for the following noted differences. The compound concentrations were adjusted to 140 μM and subjected to 2-fold dilutions to yield 140 μM, 70 μM, 35 μM, 17.5 μM, 8.8 μM, 4.4 μM, 2.2 μM, and 1.09 μM.

Meloidogyne incognita = conditions: cited from earlier work

| Structure (SMILES) | visual evaluation of viability (C. elegans; 8.8 μM) | visual evaluation of viability (C. elegans; 1.09 μM) | visual evaluation of viability (C. elegans; 2.2 μM) | visual evaluation of viability (C. elegans; 4.4 μM) | visual evaluation of viability (C. elegans; 17.5 μM) | visual evaluation of viability (C. elegans; 35 μM) | visual evaluation of viability (C. elegans; 70 μM) | activity against the root-knot nematode (Meloidogyne incognita) |
| --- | --- | --- | --- | --- | --- | --- | --- | --- |
| NCc1ccc(-c2ccccc2)cc1 [AKC-138] | B (low broodsize (25-100 progeny)) |  |  |  |  |  |  |  |
| CCCCCCCCOc1ccc2nc(CCSC)[nH]c2c1 [AKC-144] | OK (no effect (˜1000+ progeny)) | OK (no effect (˜1000+ progeny)) | OK (no effect (˜1000+ progeny)) | OK (no effect (˜1000+ progeny)) | ˜B (moderate broodsize (100-250 progeny)) | B (low broodsize (25-100 progeny)) | L4/AD/B |  |
| CC[C@H](C)[C@H]1O[C@]2(CC(O)[C@@H]1C)C[C@@H]1C[C@@H](C/C=C(\C)[C@@H](OC3CC(OC)C(OC4CC(OC)C(O)C(C)O4)C(C)O3)[C@@H](C)/C=C/C=C3\CO[C@@H]4[C@H](O)C(C)=C[C@@H](C(=O)O1)[C@]34O)O2 (stereo partly drawn) [Avermectin B2a] |  |  |  |  |  |  |  | active |
